# Assay results published in ChEMBL document CHEMBL5500372, “Novel natural osthole-inspired amphiphiles as membrane targeting antibacterials against methicillin-resistant Staphylococcus aureus (MRSA)” (Eur J Med Chem, 2024).
# Active and inactive are the calls of the source. The rule behind the calls is not given here.
# Key:
# [1] = Toxicity in female KM mouse skin abscess model infected with methicillin-resistant Staphylococcus aureus clinical isolate 16 assessed as histological abnormalities in heart at 5 mg/kg, sc measured after 24 hrs by H and E staining based analysis; type: organism-based; details: in vivo
# [2] = Toxicity in female KM mouse skin abscess model infected with methicillin-resistant Staphylococcus aureus clinical isolate 16 assessed as effect on kidney at 5 mg/kg, sc measured after 24 hrs by H and E staining based analysis; type: organism-based; details: in vivo
# [3] = system: Staphylococcus aureus; test: Antibacterial activity against methicillin-resistant Staphylococcus aureus clinical isolate 16 infected in female KM mouse skin abscess model assessed as reduction in inflammatory cells at 5 mg/kg, sc measured after 24 hrs by H and E staining based analysis; type: functional, organism-based
# [4] = system: Staphylococcus aureus; test: Antibacterial activity against methicillin-resistant Staphylococcus aureus clinical isolate 16 infected in female KM mouse skin abscess model assessed as reduction in TNF-alpha level at 5 mg/kg, sc measured after 24 hrs by ELISA method; type: functional, organism-based
# [5] = system: Staphylococcus aureus; test: Bactericidal activity against methicillin-resistant Staphylococcus aureus clinical isolate 16 assessed as eradication of bacteria at 8 times MIC measured after 8 hrs by time-kill assay; type: functional, organism-based
# [6] = Toxicity in female KM mouse skin abscess model infected with methicillin-resistant Staphylococcus aureus clinical isolate 16 assessed as histological abnormalities in lung at 5 mg/kg, sc measured after 24 hrs by H and E staining based analysis; type: organism-based; details: in vivo
# [7] = system: Staphylococcus aureus; test: Antibacterial activity against methicillin-resistant Staphylococcus aureus clinical isolate 16 infected in female KM mouse skin abscess model assessed as reduction in bacterial load at 5 mg/kg, sc measured after 24 hrs relative to control; type: functional; set-up: scale not given: the % may be the effect or the level left
# [8] = Toxicity in female KM mouse skin abscess model infected with methicillin-resistant Staphylococcus aureus clinical isolate 16 assessed as histological abnormalities in spleen at 5 mg/kg, sc measured after 24 hrs by H and E staining based analysis; type: organism-based; details: in vivo
# [9] = Toxicity in female KM mouse skin abscess model infected with methicillin-resistant Staphylococcus aureus clinical isolate 16 assessed as effect on heart at 5 mg/kg, sc measured after 24 hrs by H and E staining based analysis; type: organism-based; details: in vivo
# [10] = Toxicity in female KM mouse skin abscess model infected with methicillin-resistant Staphylococcus aureus clinical isolate 16 assessed as effect on spleen at 5 mg/kg, sc measured after 24 hrs by H and E staining based analysis; type: organism-based; details: in vivo
# [11] = system: Staphylococcus aureus; test: Antibacterial activity against methicillin-resistant Staphylococcus aureus clinical isolate 16 infected in female KM mouse skin abscess model assessed as reduction in number of MRSA cells at 5 mg/kg, sc measured after 24 hrs; type: functional, organism-based
# [12] = system: Staphylococcus aureus; test: Bactericidal activity against Staphylococcus aureus ATCC 29213 assessed as eradication of bacteria at 8 times MIC measured after 8 hrs by time-kill assay; type: functional, organism-based
# [13] = Toxicity in female KM mouse skin abscess model infected with methicillin-resistant Staphylococcus aureus clinical isolate 16 assessed as histological abnormalities in liver at 5 mg/kg, sc measured after 24 hrs by H and E staining based analysis; type: organism-based; details: in vivo
# [14] = Toxicity in female KM mouse skin abscess model infected with methicillin-resistant Staphylococcus aureus clinical isolate 16 assessed as effect on liver at 5 mg/kg, sc measured after 24 hrs by H and E staining based analysis; type: organism-based; details: in vivo
# [15] = system: Staphylococcus aureus; test: Antibacterial activity against methicillin-resistant Staphylococcus aureus clinical isolate 16 infected in female KM mouse skin abscess model assessed as log reduction in bacterial load at 5 mg/kg, sc measured after 24 hrs (reference value: 8.508 log10CFU/g); type: functional
# [16] = Toxicity in female KM mouse skin abscess model infected with methicillin-resistant Staphylococcus aureus clinical isolate 16 assessed as effect on lung at 5 mg/kg, sc measured after 24 hrs by H and E staining based analysis; type: organism-based; details: in vivo
# [17] = system: Staphylococcus aureus; test: Antibacterial activity against methicillin-resistant Staphylococcus aureus clinical isolate 16 infected in female KM mouse skin abscess model assessed as reduction in IL-6 level at 5 mg/kg, sc measured after 24 hrs by ELISA method; type: functional, organism-based
# [18] = Toxicity in female KM mouse skin abscess model infected with methicillin-resistant Staphylococcus aureus clinical isolate 16 assessed as histological abnormalities in kidney at 5 mg/kg, sc measured after 24 hrs by H and E staining based analysis; type: organism-based; details: in vivo
# [19] = system: Staphylococcus aureus; test: Antibacterial activity against methicillin-resistant Staphylococcus aureus clinical isolate 16 infected in female KM mouse skin abscess model assessed as effect on abscess in back skin at 5 mg/kg, sc measured after 24 hrs; type: functional, organism-based
# [20] = system: Staphylococcus aureus; test: Antibacterial activity against methicillin-resistant Staphylococcus aureus clinical isolate 16 infected in female KM mouse skin abscess model assessed as effect on abscess in intradermal tissue at 5 mg/kg, sc measured after 24 hrs; type: functional, organism-based
smiles,measurement,setting,value
CN[C@H](CC(C)C)C(=O)N[C@H]1C(=O)N[C@@H](CC(N)=O)C(=O)N[C@H]2C(=O)N[C@H]3C(=O)N[C@H](C(=O)N[C@H](C(=O)O)c4cc(O)cc(O)c4-c4cc3ccc4O)[C@H](O)c3ccc(c(Cl)c3)Oc3cc2cc(c3O[C@@H]2O[C@H](CO)[C@@H](O)[C@H](O)[C@H]2O[C@H]2C[C@](C)(N)[C@H](O)[C@H](C)O2)Oc2ccc(cc2Cl)[C@H]1O [VANCOMYCIN],Activity,[1],Non-Toxic
same,Activity,[2],Non-Toxic
same,Activity,[3],Active
same,Activity,[4],Active
same,Activity,[5],inactive
same,Activity,[6],Non-Toxic
same,Activity,[7],98.93%
same,Activity,[8],Non-Toxic
same,Activity,[9],Non-Toxic
same,Activity,[10],Non-Toxic
same,Activity,[11],Active
same,Activity,[12],inactive
same,Activity,[13],Non-Toxic
same,Activity,[14],Non-Toxic
same,Activity,[15],1.922 log10CFU/g
same,Activity,[16],Non-Toxic
same,Activity,[17],Active
same,Activity,[18],Non-Toxic
same,Activity,[19],Active
same,Activity,[20],Active
